Where two headings read alike, the source gives them in different places. Residues, ends and D or L forms follow the SMILES beside them.
Key:
[1] = target: T1, human neutrophil elastase (HNE) (Homo sapiens, UniProt P08246); test: Protease degradation with human neutrophil elastase (SDS-PAGE, RP-HPLC, LC-MS/MS); format: in vitro ADME
T1 construct: purchased Calbiochem, Merck, Darmstadt, Germany
T1 sequence (P08246 30-267): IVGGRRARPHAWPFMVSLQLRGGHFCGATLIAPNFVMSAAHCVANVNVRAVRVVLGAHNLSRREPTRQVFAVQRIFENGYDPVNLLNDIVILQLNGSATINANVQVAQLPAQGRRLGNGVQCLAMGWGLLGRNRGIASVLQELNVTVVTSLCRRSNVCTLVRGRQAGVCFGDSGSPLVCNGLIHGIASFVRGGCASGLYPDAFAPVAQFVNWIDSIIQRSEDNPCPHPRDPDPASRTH
Method: (§1) The peptide was pre-mixed with Buffer A (1:3) 5 min before being loaded on the column. Protease-digested peptides were analyzed by HPLC as described above. Samples from two different digestions were analyzed.
(§2) Peptides were resuspended in endotoxin-free water at a final concentration of 1 mM. […] All digestions were performed in three independent experiments.
(§3) Two micrograms of peptide from each condition were loaded on 10–20% Novex Tricine pre-cast gels (Invitrogen, Carlsbad, CA, USA). The run was performed at 100 V for 100 min. The gel was stained by using Coomassie Brilliant blue (Invitrogen, Carlsbad, CA, USA), and images were acquired with a Gel Doc Imager (Bio-Rad Laboratories, Hercules, CA, USA). Samples from three independent digestions were analyzed.
(§4) LC-MS/MS analysis was performed using an HFX Orbitrap MS system (Thermo Scientific, San Jose, CA, USA) equipped with a Dionnex 3000 Ultimate HPLC (Thermo Fisher, USA). Settings were used as previously described by Petruk et al.[55] with minor changes. […] The precursor tolerance was set to 10 ppm and 0.02 Da for the MSMS fragments, and no enzyme was selected, allowing unspecific cleavage. Samples from two independent digestions were analyzed.

[2] = tested on: THP1-XBlue-CD14 reporter cells
Method: (§5) Effects on NF-κB activation were assessed using THP1-XBlue-CD14 reporter cells (InvivoGen, San Diego, CA, USA). Briefly, 180,000 cells well^−1 were seeded in 96-well plates in phenol red RPMI media, supplemented with 10% (vv^−1) heat-inactivated FBS and 1% (vv^−1) Antibiotic-Antimycotic solution (AA). […] NF-κB activation was determined after 20 h of incubation according to the manufacturer’s instructions (InvivoGen, San Diego, CA, USA) by mixing 20 μL of supernatant with 180 μL of SEAP detection reagent (Quanti-BlueTM, InvivoGen, San Diego, CA, USA), followed by absorbance measurement at 600 nm. Data shown are mean values ± SD obtained from at least four independent experiments, all made in triplicate. In another set of experiments, the cells were stimulated with 100 ng mL^−1 of E. coli LPS, 1 μg mL^−1 S. aureus LTA, 1 μg mL^−1 E. coli PGN, 1 μg mL^−1 S. aureus PGN, or 10 μg mL^−1 S. cerevisiae zymosan in the presence or the absence of 10 μM of linear and stapled HVF18. The experiment was performed as described above.

[3] = target: T2, P. aeruginosa elastase (PE) (Pseudomonas aeruginosa, UniProt P14756); format: in vitro ADME
T2 construct: purchased Calbiochem, Merck, Darmstadt, Germany
Method: as §1, §2, §3, §4

[4] = Cell viability of THP1-XBlue-CD14 reporter cells; details: human; for viability at 20 h, 1 µM: 1 µM peptide; for viability at 20 h, 2 µM: 2 µM peptide; for viability at 20 h, 5 µM: 5 µM peptide; for viability at 20 h, 10 µM: 10 µM peptide; for viability at 20 h, 20 µM: 20 µM peptide
Method: as §5

[5] = CD analysis after exposure to 80 °C (conformational stability); format: physicochemical; details: then CD, minima at 208 and 222 nm
in vitro = details: human, THP1-XBlue-CD14 reporter cells, Cell viability
Method: as §5

hCD14 = target: T3, hCD14 (Homo sapiens, UniProt P08571, C306S); test: Microscale thermophoresis, binding to CD14; details: 10 mM Tris pH 7.4, read-out: Kd (µM) to CD14, MST
T3 construct: His-tag; non-native C-terminal linker with a protease-site-like motif, seen in the peptide map at 335-349 (C); made in house; host or cells: insect cells
T3 sequence (P08571 with tags, fused parts or gaps C306S limits assumed): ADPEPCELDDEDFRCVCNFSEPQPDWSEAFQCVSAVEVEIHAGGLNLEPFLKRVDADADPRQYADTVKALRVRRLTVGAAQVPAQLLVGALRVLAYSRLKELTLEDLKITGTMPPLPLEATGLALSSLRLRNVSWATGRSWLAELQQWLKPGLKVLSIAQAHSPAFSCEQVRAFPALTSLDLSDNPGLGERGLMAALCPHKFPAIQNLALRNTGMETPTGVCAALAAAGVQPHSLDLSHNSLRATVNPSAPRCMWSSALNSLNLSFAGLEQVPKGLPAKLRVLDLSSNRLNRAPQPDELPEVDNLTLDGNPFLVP
Method: Microscale thermophoresis (MST) was performed on a NanoTemper Monolith NT.115 apparatus (Nano Temper Technologies, Germany). A Monolith NT Protein labeling kit RED – NHS (Nano Temper Technologies, Germany) was used to label 20 μM of recombinant hCD14 according to the manufacturer’s protocol. […] The sample was then loaded into standard glass capillaries (Monolith NT Capillaries, Nano Temper Technologies), and MST analysis was performed (settings for the light-emitting diode and infrared laser were 80%).

T2 sequence (P14756 198-498): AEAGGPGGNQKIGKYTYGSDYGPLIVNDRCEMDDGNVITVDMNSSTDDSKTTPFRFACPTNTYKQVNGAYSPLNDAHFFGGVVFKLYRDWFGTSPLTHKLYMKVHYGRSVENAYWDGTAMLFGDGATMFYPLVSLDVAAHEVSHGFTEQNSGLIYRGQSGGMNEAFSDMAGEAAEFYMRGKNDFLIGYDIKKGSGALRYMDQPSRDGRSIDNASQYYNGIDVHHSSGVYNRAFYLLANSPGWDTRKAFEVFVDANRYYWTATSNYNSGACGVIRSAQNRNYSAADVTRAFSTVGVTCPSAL

| SMILES | Cell viability, PGN-EB 1 µg/ml + peptide [2] | viability at 20 h, 1 µM ([4]; with LPS, replicate 1) [%] | viability at 20 h, 1 µM ([4]; with LPS, replicate 2) [%] | viability at 20 h, 1 µM ([4]; with LPS, replicate 3) [%] | viability at 20 h, 1 µM ([4]; with LPS, replicate 4) [%] | viability at 20 h, 2 µM ([4]; with LPS, replicate 1) [%] | viability at 20 h, 2 µM ([4]; with LPS, replicate 2) [%] | viability at 20 h, 2 µM ([4]; with LPS, replicate 3) [%] | viability at 20 h, 2 µM ([4]; with LPS, replicate 4) [%] | viability at 20 h, 5 µM ([4]; with LPS, replicate 1) [%] | viability at 20 h, 5 µM ([4]; with LPS, replicate 2) [%] | viability at 20 h, 5 µM ([4]; with LPS, replicate 3) [%] | viability at 20 h, 5 µM ([4]; with LPS, replicate 4) [%] | viability at 20 h, 10 µM ([4]; with LPS, replicate 1) [%] | viability at 20 h, 10 µM ([4]; with LPS, replicate 2) [%] | viability at 20 h, 10 µM ([4]; with LPS, replicate 3) [%] | viability at 20 h, 10 µM ([4]; with LPS, replicate 4) [%] | viability at 20 h, 20 µM ([4]; with LPS, replicate 1) [%] | viability at 20 h, 20 µM ([4]; with LPS, replicate 2) [%] | viability at 20 h, 20 µM ([4]; with LPS, replicate 3) [%] | other results |
| --- | --- | --- | --- | --- | --- | --- | --- | --- | --- | --- | --- | --- | --- | --- | --- | --- | --- | --- | --- | --- | --- |
| CC[C@H](C)[C@H](NC(=O)[C@H](Cc1c[nH]c2ccccc12)NC(=O)[C@H](CCCCN)NC(=O)[C@H](CCCCN)NC(=O)[C@H](CC(C)C)NC(=O)[C@H](CCCNC(=N)N)NC(=O)[C@H](Cc1ccccc1)NC(=O)[C@@H](NC(=O)[C@@H](N)Cc1c[nH]cn1)C(C)C)C(=O)N[C@@]1(C)CCCC=CCCC[C@@](C)(C(=O)N[C@@H](CCC(N)=O)C(=O)N[C@@H](Cc2ccccc2)C(=O)NCC(=O)N[C@@H](CCC(=O)O)C(=O)O)NC(=O)[C@H]([C@@H](C)CC)NC(=O)[C@H](C(C)C)NC(=O)[C@H](CCCCN)NC1=O [sHVF18] | 75.0616 | 88.7 | 90.5 | 78.9 | 86.3 | 102 | 92.8 | 74.9 | 96.3 | 106 | 93.7 | 79.1 | 95 | 99.1 | 88.8 | 82.4 | 87.8 | 104 | 70.9 | 67.5 | Fragmentation seen by LC-MS/MS after HNE digestion (in words) [1]: no identified sHVF18 fragments; Cell viability, PGN-SA 10 µg/ml + peptide [2]: 69.8483; Cell viability, Zymosan 10 µg/ml + peptide [2]: 73.0816; Resistance to P. aeruginosa elastase (in words) ([3]; 0.2 µg PE, 0–18 h, SDS-PAGE, RP-HPLC, LC-MS/MS, versus linear peptide): improved resistance; Fragmentation seen by LC-MS/MS after PE digestion (in words) ([3]; 30 min and 3 h): no identified sHVF18 fragments; viability at 20 h, 20 µM ([4]; with LPS, replicate 4): 77.9%; viability at 20 h, 20 µM ([4]; without LPS, replicate 1): 112%; viability at 20 h, 20 µM ([4]; without LPS, replicate 2): 69.7%; viability at 20 h, 20 µM ([4]; without LPS, replicate 3): 81.5%; viability at 20 h, 20 µM ([4]; without LPS, replicate 4): 90.5%; Conformational stability after exposure to 80 °C (CD analysis) [5]: still presented an α-helical spectrum; viability at 20 h, 10 µM (in vitro; LTA 1 µg/ml + peptide): 91.3%; viability at 20 h, 10 µM (in vitro; PGN-SA 10 µg/ml + peptide): 55.8% |
| CC[C@H](C)[C@H](NC(=O)[C@H](Cc1c[nH]c2ccccc12)NC(=O)[C@H](CCCCN)NC(=O)[C@H](CCCCN)NC(=O)[C@H](CC(C)C)NC(=O)[C@H](CCCNC(=N)N)NC(=O)[C@H](Cc1ccccc1)NC(=O)[C@@H](NC(=O)[C@@H](N)Cc1cnc[nH]1)C(C)C)C(=O)N[C@@H](CCC(N)=O)C(=O)N[C@@H](CCCCN)C(=O)N[C@H](C(=O)N[C@H](C(=O)N[C@@H](CC(=O)O)C(=O)N[C@@H](CCC(N)=O)C(=O)N[C@@H](Cc1ccccc1)C(=O)NCC(=O)N[C@@H](CCC(=O)O)C(=O)O)[C@@H](C)CC)C(C)C [HVF18] (H-HVFRLKKWIQKVIDQFGE-OH) | 85.0457 | 79.5 | 76.5 | 83.4 | 78.1 | 94.1 | 84.3 | 83.2 | 88.3 | 107 | 97.5 | 80.5 | 82.3 | 89.5 | 92.1 | 82.5 | 103 | 90.6 | 85.3 | 77.4 | Kd (hCD14; with NaCl (150 mM), measurement 1): 3.2 µM; Kd (hCD14; with NaCl (150 mM), measurement 2): 2.5 µM; Kd (hCD14; with NaCl (150 mM), measurement 3): 1.1 µM; Kd (hCD14; with NaCl (150 mM), measurement 4): 2.7 µM; Kd (hCD14; with NaCl (150 mM), measurement 5): 2.5 µM; Kd (hCD14; with NaCl (150 mM), measurement 6): 1.6 µM; Kd (hCD14; without NaCl, measurement 1): 8.3 µM; Kd (hCD14; without NaCl, measurement 2): 6.2 µM; Kd (hCD14; without NaCl, measurement 3): 5.9 µM; Kd (hCD14; without NaCl, measurement 4): 8.7 µM; Kd (hCD14; without NaCl, measurement 5): 7.5 µM; Kd (hCD14; without NaCl, measurement 6): 2.1 µM; viability at 20 h, 20 µM ([4]; with LPS, replicate 4): 91.1%; viability at 20 h, 20 µM ([4]; without LPS, replicate 1): 99.3%; viability at 20 h, 20 µM ([4]; without LPS, replicate 2): 72.9%; viability at 20 h, 20 µM ([4]; without LPS, replicate 3): 84.9%; viability at 20 h, 20 µM ([4]; without LPS, replicate 4): 73.7%; viability at 20 h, 10 µM (in vitro; LTA 1 µg/ml + peptide): 105%; viability at 20 h, 10 µM (in vitro; PGN-SA 10 µg/ml + peptide): 74.3% |

From paper PMC10541425, “Targeting Toll-like receptor-driven systemic inflammation by engineering an innate structural fold into drugs” (Nature Communications, 2023)
